Experimental data from US11633400B2.
Each block holds one compound with its values, some of them ahead of it.

How the values were obtained:
[1] = cited from earlier work; for aqueous solubility: at room temperature, known values
[2] = Hygroscopicity by dynamic water vapor sorption analysis (DVS)
Description: DVS measurements were conducted as follows: The sample was placed on an aluminum holder on top of a microbalance and allowed to equilibrate at 50% RH before starting the pre-defined humidity program:
(1) two hours kept at 50% constant relative humidity (RH) then
(2) raised RH to 95% at a rate of 5% per hour
(3) maintained RH at 95% for five hours
(4) reduced to 0% RH at a rate of 5% per hour
(5) maintained RH at 0% for five hours
(6) raised RH to 95% at a rate of 5% per hour
(7) maintained RH at 95% for five hours
(8) reduced to 0% RH at a rate of 5% per hour
(9) maintained RH at 0% for five hours
(10) raised to 50% RH at a rate of 5% per hour
(11) maintained RH at 50% for about one hour
(§1) This sample was examined by dynamic water vapor sorption analysis (DVS) within the relative humidity range from 0 to 95% r.h. DVS measurements were conducted as described above.

Water content by TG-FTIR = conditions: sample according to Example 1; relative humidity of about 35%
Description: Thermogravimetric measurements were carried out with a Netzsch Thermo-Microbalance TG 209 coupled to a Bruker FTIR Spectrometer Vector 22 (sample pans with a pinhole, N2 atmosphere, heating rate 10 K/min).
This value was determined by TG-FTIR at a relative humidity of about 35%. This sample was examined by dynamic water vapor sorption analysis (DVS) within the relative humidity range from 0 to 95% r.h. DVS measurements were conducted as described above.
as §1

SMILES: CN1c2c([nH]c(N)nc2=O)NC[C@@H]1CNc1ccc(C(=O)N[C@@H](CCC(=O)O)C(=O)O)cc1
solubility in water (in words) ([1]; water): poorly soluble

change of water content ([2]; DVS, range from 20% to 80% relative humidity): about 2%
water adsorption compared with the crystalline polymorphic forms of the calcium salt ([2]; under changing relative humidity): significantly lower
water content (TG-FTIR) (Water content by TG-FTIR): about 8.9 % w/w
SMILES: CN1c2c(nc(N)[nH]c2=O)NC[C@@H]1CNc1ccc(C(=O)N[C@@H](CCC(=O)O)C(=O)O)cc1.OCCN1CCOCC1

SMILES: CN1c2c([nH]c(N)nc2=O)NC[C@@H]1CNc1ccc(C(=O)N[C@@H](CCC(=O)[O-])C(=O)[O-])cc1.[Ca+2] [Form I]
aqueous solubility [1]: about 10 mg/ml

SMILES: CN1c2c([nH]c(N)nc2=O)NC[C@@H]1CNc1ccc(C(=O)N[C@@H](CCC(=O)[O-])C(=O)[O-])cc1.[Ca+2] [calcium salt (Form III)]
aqueous solubility [1]: about 2.5 mg/ml
